Source: patent US7557213B2, “Substituted quinolones and methods of use” (ChemoCentryx, Inc., priority 2005, dated 2009)

These compounds were tested against T1, CCXCKR2 receptor (Homo sapiens, UniProt P25106) (assay: Displacement of 125I-labeled SDF-1 from the CCXCKR2 receptor on MCF-7 and/or CCXCKR2-transfected MDA-MB-435S cells (radioligand binding, filtration)). Conditions: not given.
T1 construct: expressed in transfected cells; host or cells: MDA-MB-435S transfected with pcDNA3.1(+)-hRDC1 and/or MCF-7 (endogenous receptor)
T1 sequence (P25106 whole entry): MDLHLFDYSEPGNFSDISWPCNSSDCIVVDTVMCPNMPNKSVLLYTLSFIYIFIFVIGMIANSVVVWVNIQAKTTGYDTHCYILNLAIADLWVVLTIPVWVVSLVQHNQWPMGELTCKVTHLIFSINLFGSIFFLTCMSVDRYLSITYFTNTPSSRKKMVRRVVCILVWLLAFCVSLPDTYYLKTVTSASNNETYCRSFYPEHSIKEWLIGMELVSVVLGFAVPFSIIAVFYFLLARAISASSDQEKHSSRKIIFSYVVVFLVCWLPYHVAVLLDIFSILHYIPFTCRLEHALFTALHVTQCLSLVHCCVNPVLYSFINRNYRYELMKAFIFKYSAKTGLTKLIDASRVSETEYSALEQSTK

SMILES	IC50 [nM]
Cc1cccc(Cn2cc(C(=O)c3ccc(C)c(C)c3)c(=O)c3ccccc32)c1 [Example 9]	< 100
Cc1ccc(C(=O)c2cn(CC3CCCCC3)c3ccccc3c2=O)cc1C [Example 39]	< 100

Same assay, conditions: 125I SDF-1, 3 hr at 4° C., MCF-7 and/or MDA-MB-435S cells; read-out: Activity (concentration displacing at least 50% of the SDF-1 from the CCXCKR2 receptor)

IC50 [nM]	SMILES
< 100	COc1cccc(Cn2cc(C(=O)c3ccc(C)c(C)c3)c(=O)c3ccccc32)n1 [Example 69]
< 100	Cc1cccc(Cn2cc(C(=O)c3ccc(N(C)C)cc3)c(=O)c3ccccc32)n1 [Example 158]
< 100	COc1ncc(C(=O)c2cn(Cc3cccc(Br)n3)c3ccccc3c2=O)cc1C [Example 198]
< 100	CCc1ccc(C(=O)c2cn(Cc3cccc(Br)n3)c3ccccc3c2=O)cc1 [Example 115]
< 100	Cc1cc(C)cc(C(=O)c2cn(Cc3cccc(Br)n3)c3ccccc3c2=O)c1 [Example 104]
500 to 20000	Cc1cccc(Cn2cc(C(=O)c3cnccn3)c(=O)c3ccccc32)c1 [Example 62]
100 to 500	Cc1ccnc(C(=O)c2cn(Cc3cccc(Br)n3)c3ccccc3c2=O)c1 [Example 150]
500 to 20000	Cc1cccc(Cn2cc(C(=O)c3ccnc(C)c3)c(=O)c3ccccc32)c1 [Example 26]
< 100	COc1ccc(C(=O)c2cn(Cc3cccc(Br)n3)c3ccccc3c2=O)cc1F [Example 145]
100 to 500	COCc1cccc(Cn2cc(C(=O)c3ccc(C)c(C)c3)c(=O)c3ccccc32)n1 [Example 111]
< 100	Cc1ccc(C(=O)c2cn(Cc3cccc(C#N)n3)c3ccccc3c2=O)cc1C [Example 81]
< 100	Cc1cccc(C(=O)c2cn(Cc3ccccn3)c3ccccc3c2=O)c1 [Example 22]
< 100	Cc1ccc(C(=O)c2cn(Cc3ncccn3)c3ccccc3c2=O)cc1C [Example 56]
< 100	Cc1ccc(C(=O)c2cn(Cc3cccc(C4CC4)n3)c3ccccc3c2=O)cc1C [Example 74]
< 100	Cc1cc(C(=O)c2cn(Cc3cccc(C#N)n3)c3ccccc3c2=O)cnc1C [Example 85]
< 100	CCc1ccc(C(=O)c2cn(Cc3cccc(Br)n3)c3ccccc3c2=O)cn1 [Example 154]
< 100	CNc1cccc(Cn2cc(C(=O)c3ccc(C)c(C)c3)c(=O)c3ccccc32)n1 [Example 93]
< 100	Cc1cc(C(=O)c2cn(Cc3cccc(Br)n3)c3ccccc3c2=O)ccc1Cl [Example 182]

IC50 [nM]	SMILES
500 to 20000	Cc1ccc(C(=O)c2cn(Cc3cccc(CN(C)C)n3)c3ccccc3c2=O)cc1C [Example 118]
< 100	Cc1ccc(C(=O)c2cn(Cc3ncccc3F)c3ccccc3c2=O)cc1C [Example 37]
100 to 500	Cc1cccc(C(=O)c2cn(Cc3cccc(Br)n3)c3ccccc3c2=O)n1 [Example 122]
500 to 20000	Cc1ccc(C(=O)c2cn(Cc3cccc(O)n3)c3ccccc3c2=O)cc1C [Example 213]
500 to 20000	Cc1cc(C(=O)c2cn(Cc3ccccc3F)c3ccccc3c2=O)ccn1 [Example 24]
500 to 20000	Cc1ccc(C(=O)c2cn(Cc3cccc(C)n3)c3ccccc3c2=O)nc1 [Example 221]
< 100	Cc1cc(C(=O)c2cn(Cc3cccc(Br)n3)c3ccccc3c2=O)ccc1F [Example 203]
< 100	CN(C)c1cccc(C(=O)c2cn(Cc3cccc(Br)n3)c3ccccc3c2=O)c1 [Example 97]
< 100	Cc1ccc(C(=O)c2cn(Cc3ccccc3F)c3ccccc3c2=O)cc1C [Example 4]
500 to 20000	Cc1cccc(Cn2cc(C(=O)c3ccncc3)c(=O)c3ccccc32)c1 [Example 17]
< 100	Cc1cc(C(=O)c2cn(Cc3ccccc3F)c3ccccc3c2=O)cnc1C [Example 40]
100 to 500	Cc1cc(C(=O)c2cn(Cc3cccc(CO)n3)c3ccccc3c2=O)cnc1C [Example 125]
< 100	CCOc1ccc(C(=O)c2cn(Cc3cccc(Br)n3)c3ccccc3c2=O)cc1C [Example 132]
100 to 500	Cc1ncccc1C(=O)c1cn(Cc2cccc(Br)n2)c2ccccc2c1=O [Example 219]
100 to 500	CCc1ccc(C(=O)c2cn(Cc3cccc(Cl)c3)c3ccccc3c2=O)cn1 [Example 244]
< 100	Cc1ccc(C(=O)c2cn(Cc3cccc(Br)n3)c3ccccc3c2=O)cn1 [Example 220]
< 100	CN(C)C(=O)c1cccc(C(=O)c2cn(Cc3cccc(Br)n3)c3ccccc3c2=O)c1 [Example 180]

Continued, compound first:

SMILES	IC50 [nM]
COc1ccc(C(=O)c2cn(Cc3cccc(C(F)(F)F)c3)c3ncccc3c2=O)cc1C [Example 196]	< 100
Cc1ccc(C(=O)c2cn(Cc3ccccc3C(F)(F)F)c3ccccc3c2=O)cc1C [Example 36]	500 to 20000
COc1ccc(C(=O)c2cn(Cc3cccc(Br)c3)c3ccc(C)nc3c2=O)cc1F [Example 238]	500 to 20000
O=C(c1ncc(Br)cn1)c1cn(Cc2cccc(Br)n2)c2ccccc2c1=O [Example 128]	500 to 20000
O=C(O)c1ccccc1C(=O)c1cn(Cc2cccc(Br)n2)c2ccccc2c1=O [Example 138]	< 100
Cc1cccc(Cn2cc(C(=O)c3ccc4c(c3)OCCO4)c(=O)c3cccnc32)n1 [Example 164]	< 100
COC(=O)c1ccccc1C(=O)c1cn(Cc2cccc(Br)n2)c2ccccc2c1=O [Example 155]	< 100
COc1ccc(C(=O)c2cn(Cc3cccc(Cl)c3)c3ccc(C)nc3c2=O)cc1C [Example 234]	100 to 500
COc1ccc(C(=O)c2cn(Cc3cccc(Br)n3)c3ncccc3c2=O)cc1OC [Example 193]	< 100
COc1ccc(C(=O)c2cn(Cc3cccc(Br)n3)c3ccccc3c2=O)cc1C1OCCCO1 [Example 136]	< 100
Cc1ccc(C(=O)c2cn(Cc3ncon3)c3ccccc3c2=O)cc1C [Example 29]	< 100
COc1ccc(C(=O)c2cn(Cc3cccc(Br)n3)c3nc(C)ccc3c2=O)cc1C [Example 143]	< 100
Cc1ccc(C(=O)c2cn(Cc3ccccc3F)c3cc4c(cc3c2=O)OCCO4)cc1C [Example 7]	500 to 20000
Cc1ccc(C(=O)c2cn(Cc3cccc(N4CCCCC4)n3)c3ccccc3c2=O)cc1C [Example 68]	< 100
COc1ccc(C(=O)c2cn(Cc3cccc(C)n3)c3ncccc3c2=O)cc1 [Example 161]	< 100
Cc1ccc(C(=O)c2cn(Cc3cccc(Br)[n+]3[O-])c3ccccc3c2=O)cc1C [Example 88]	100 to 500
Cc1ccc(C(=O)c2cn(Cc3ccccc3F)c3ccncc3c2=O)cc1C [Example 46]	500 to 20000
CC(C)Oc1ccc(C(=O)c2cn(Cc3cccc(Br)n3)c3ccccc3c2=O)cc1 [Example 218]	100 to 500
COc1ccc(C(=O)c2cn(Cc3cccc(C)n3)c3ncccc3c2=O)cc1F [Example 163]	< 100
COc1ccc(C(=O)c2cn(Cc3cncc(C)n3)c3ccccc3c2=O)cc1F [Example 225]	< 100
O=C(c1ccc(C(F)(F)F)nc1)c1cn(Cc2cccc(Br)n2)c2ccccc2c1=O [Example 133]	< 100
Cc1cccc(Cn2cc(C(=O)c3cnc(C)c(C)c3)c(=O)c3cc(F)ccc32)n1 [Example 124]	< 100
Cc1ncc(C(=O)c2cn(Cc3cccc(Br)n3)c3ccccc3c2=O)n1C [Example 152]	500 to 20000
Cc1ccc(C(=O)c2cn(Cc3cccc(Br)n3)c3nc(C)c(C)cc3c2=O)cc1C [Example 159]	< 100

SMILES	IC50 [nM]
O=C(c1cnccn1)c1cn(Cc2ccccc2F)c2ccccc2c1=O [Example 61]	500 to 20000
Cc1cccc(Cn2cc(C(=O)c3cnc(C)c(C)c3)c(=O)c3cc(F)ccc32)c1 [Example 55]	< 100
Cc1ccc(C(=O)c2cn(Cc3cccc(N4CCOCC4)n3)c3ccccc3c2=O)cc1C [Example 71]	100 to 500
Cc1ccc(C(=O)c2cn(Cc3cccc(Br)n3)c3ccccc3c2=O)cc1C [Example 51]	< 100
Cc1ccc(C(=O)c2cn(Cc3cccc(Br)n3)c3cc(F)c(F)cc3c2=O)cc1C [Example 73]	< 100
Cc1cc2c(=O)c(C(=O)c3ccc(C)c(C)c3)cn(Cc3cccc(Br)n3)c2c(C)n1 [Example 109]	500 to 20000
Cc1ccc(C(=O)c2cn(Cc3cccnc3)c3cc4c(cc3c2=O)OCO4)cc1C [Example 2]	500 to 20000
COc1ccc(C(=O)c2cn(Cc3cccc(C)n3)c3ncccc3c2=O)cc1C [Example 162]	< 100
Cc1ccc(C(=O)c2cn(Cc3cccc(C#N)n3)c3ccccc3c2=O)nc1C [Example 80]	< 100
CNCc1ccc(C(=O)c2cn(Cc3cccc(Br)n3)c3ccccc3c2=O)cc1 [Example 153]	100 to 500
CN(C)C(=O)c1ccccc1C(=O)c1cn(Cc2cccc(Br)n2)c2ccccc2c1=O [Example 168]	< 100
Cc1nc(C(=O)c2cn(Cc3cccc(Br)n3)c3ccccc3c2=O)sc1C [Example 147]	< 100
Cc1ccc(C(=O)c2cn(Cc3ccncc3)c3cc4c(cc3c2=O)OCO4)cc1C [Example 3]	500 to 20000
COc1ccc(C(=O)c2cn(Cc3cccc(Br)n3)c3ncccc3c2=O)cc1F [Example 174]	< 100
Cc1ccc(C(=O)c2cn(Cc3cccc(Br)n3)c3ccccc3c2=O)c(C)n1 [Example 185]	< 100
O=C(c1ccc2c(c1)OCCO2)c1cn(Cc2cccc(Br)n2)c2ccccc2c1=O [Example 113]	< 100
COc1ccc(C(=O)c2cn(Cc3cccc(C#N)n3)c3ncccc3c2=O)cc1C [Example 194]	< 100
COc1ccc(C(=O)c2cn(Cc3cccc(C)n3)c3ccc(C)nc3c2=O)cc1C [Example 216]	500 to 20000
COc1ccc(C(=O)c2cn(Cc3cccc(Br)n3)c3cccnc3c2=O)cc1C [Example 201]	500 to 20000
Cc1cc(C(=O)c2cn(Cc3cccc(Br)n3)c3ccc(F)cc3c2=O)cnc1C [Example 67]	< 100
Cc1cc(C(=O)c2cn(Cc3cccc(C(F)(F)F)n3)c3ccccc3c2=O)cnc1C [Example 82]	< 100
O=C(c1ccc(C(F)(F)F)nc1)c1cn(Cc2cccc(Br)c2)c2ccccc2c1=O [Example 224]	500 to 20000
Cc1ccc(C(=O)c2cn(Cc3cnn[nH]3)c3ccccc3c2=O)cc1C [Example 48]	100 to 500
